The values below come from the pKa sets of Baltruschat and Czodrowski (2020).

As for `O=C(O)[C@@H]1C[C@@H]1Cl`, the pKa (acidic group) came to 4.12.
The molecule `CCOC(=O)c1cccc(O)c1` yielded a pKa (acidic group) of 9.05.
For the setting “basic group”, `[O-]c1ccnc2ccccc12` displayed a pKa of 11.2.
Regarding `[O-]c1ccccc1-c1ccccc1O`, the pKa (acidic group) came to 14.7.
As for `COc1ccc(NC(C)=S)cc1`, the pKa (acidic group) was 12.
In the case of `CN(CCC[NH+](C)C)CCC[NH+](C)C`, for the setting “basic group”, the pKa came to 6.4.
`C=CCC1(C2=CCCCC2)C(=O)[N-]C(=S)NC1=O` displayed a pKa (acidic group) of 11.7.
Consider `Nc1nc[nH+]c(N)c1N`, for which the pKa (basic group) was determined as 1.47.
In turn, `[NH3+]CCc1ccccn1` yielded a pKa (basic group) of 3.93.
Same read-out and setting: with `CCCN(CC(C)O)CC(C)O` (configuration not stated) the figure was 8.9.
On the same count and under the same terms, with `COc1cccc(CN(C)C)c1O` the figure was 8.42; with `[O-]c1ccc(O)c2ccccc12`, 11.
The same measure, in the same setting: with `Cc1ccccc1/C(=N\CCCN(C)C)c1ccccc1N` the figure was 9; with `COC(=O)C([NH3+])Cc1c[nH]cn1` (configuration not stated), 5.41.
Turning to `CC(=O)C(=NO)C(C)=O`, the pKa (acidic group) was determined as 7.44.
Molecule `CC(=O)C(C(C)=O)C(C)C` gave a pKa (acidic group) of 12.8.
Same read-out and setting: for `OC[C@@H]1O[C@H]([n+]2ccc(NO)nc2O)[C@@H](O)[C@H]1O` the value was 2.26; for `Cc1cc(Cl)cc(Cl)c1O`, 7.85.
Take `C=C(C)[C@H]1C[NH2+][C@H](C(=O)O)[C@H]1CC(=O)OC`: where the note is “acidic group”, the pKa amounted to 1.95.
As for `CCN(C(C)C)C(C)C`, the pKa (basic group) came to 11.4.
Regarding `[S-]c1ncnc2nc[nH]c12`, the pKa turned out to be 10.9 (acidic group) and 7.74 (basic group).
Under “acidic group”, `O=C(O)/C=C\c1cccc([N+](=O)[O-])c1` showed a pKa of 3.63.
For the setting “acidic group”, `[O-]c1nc(S)c2[nH]cnc2n1` had a pKa of 11.4.
The molecule `NC(=O)CCCc1ccccn1` came in with a pKa (acidic group) of 5.48.
In the case of `Cc1c(C(=O)O)cccc1[N+](=O)[O-]`, the pKa (acidic group) turned out to be 2.98.
As to `C=C(C)C(=O)OCCNC(C)C`, the pKa (basic group) worked out at 9.13.
For the molecule `[O-]c1cc[n+]([C@H]2O[C@@H](CO)[C@H](O)[C@H]2O)c([O-])n1`, for the setting “basic group”, the pKa turned out to be 9.3.
Turning to `N[C@H]1CCCC[C@@H]1[NH3+]`, under “basic group”, the pKa is 6.71.
As for `CC(=O)c1ccc(NN=C(C#N)C#N)cc1`, the pKa reads like this: (acidic group) 5.85; (basic group) -0.77.
As for `Cc1c[nH]cc1C(=O)O`, the pKa (acidic group) was 5.65.
On to `NC/C=C\C(=O)[O-]`, for which the pKa (basic group) was 9.84.
Turning to `C[NH+](C)CCNC(=O)/C=N/O`, under “acidic group”, the pKa is 8.17.
Where the note is “acidic group”, `Oc1ccc(-c2ccccc2)cc1` had a pKa of 9.47.
As for `O=C([O-])[C@@H]1O[C@H](Oc2cccc3cccnc23)[C@@H](O)[C@H](O)[C@H]1O`, where the note is “basic group”, the pKa worked out at 4.62.
For the molecule `Cn1c(CCl)nc2c(O)ccc(O)c21`, the pKa reads like this: (acidic group) 8.4; (basic group) 4.03.
The molecule `Cc1cc(=O)n(-c2ccccc2)n1C` came in with a pKa (basic group) of 1.45.
As to `CC(C)(/C=C/C(=O)[O-])c1cc([N+](=O)[O-])ccc1O`, for the setting “acidic group”, the pKa turned out to be 7.24.
For `O=[N+]([O-])c1ccc2[nH]c(C(F)(F)Cl)nc2c1`, the pKa (basic group) was 0.77.
Consider `[NH3+]C(CC(=O)O)c1cccc[nH+]1` (configuration not stated), for which, for the setting “acidic group”, the pKa turned out to be 1.3.
Molecule `CCN(CC)CCCCC#N` gave a pKa (basic group) of 10.1.
`O=[Se](O)c1ccccc1-c1ccccc1`: the pKa (acidic group) stood at 4.67.
Where the note is “basic group”, `CNCCC(=O)c1ccccc1` yielded a pKa of 9.
`NCCCCC[NH3+]` yielded a pKa (basic group) of 9.73.
The molecule `OCCNC1CCN(Cc2ccccc2)CC1` registered a pKa (basic group) of 9.24.
With `COc1cc(S(C)=O)ccc1-c1nc2cnncc2[nH]1` (configuration not stated), the pKa was determined as 8.49 (acidic group) and 3.81 (basic group).
For `COc1nc2ncncc2[nH]1`, in that order: 7.73 and 3.14.
For `CN(C)C(=S)OCC(=O)O`, where the note is “acidic group”, the pKa was 2.87.
`Cc1cc(C)n(-c2cc(C)n(C)n2)n1`: where the note is “basic group”, the pKa was determined as 2.19.
Consider `CC(I)[N+](=O)[O-]` (configuration not stated), for which, under “acidic group”, the pKa was determined as 7.24.
In the case of `O=C(O)c1csc2ccccc12`, the pKa (acidic group) is 4.24.
For the setting “basic group”, `COC(=O)C1CN2CCC1CC2` (configuration not stated) showed a pKa of 9.4.
As for `C1CCC(C2=NCCC2)CC1`, the pKa (basic group) stood at 6.05.
The same measure, in the same setting: for `CN(C)CCc1ccc(O)cc1` the value was 9.8.
The molecule `COc1ccc(CN2CC(O[Si](C)(C)C)C2)cc1` came in with a pKa (basic group) of 8.17.
In the case of `Oc1ccc(O)c(Br)c1`, the pKa (acidic group) worked out at 8.67.
Take `Cc1cc2nc[nH]c2cc1C`: the pKa was determined as 12.5 (acidic group) and 6.04 (basic group).
Turning to `NCC(N)CN`, where the note is “basic group”, the pKa is 9.59.
On the same count and under the same terms, for `Cc1cc2ccccc2nc1C` the value was 4.93.
As to `O=C(O)CCBr`, where the note is “acidic group”, the pKa was determined as 3.86.
Where the note is “basic group”, `Cc1cc([S-])ncn1` displayed a pKa of 7.3.
Where the note is “acidic group”, `Nc1nc2c(ncn2[C@H]2O[C@@H](CO)[C@H](O)[C@@H]2O)c(O)[nH+]1` registered a pKa of 1.9.
With `c1ccc(C2CCCN2)cc1` (configuration not stated), where the note is “basic group”, the pKa turned out to be 9.6.
The molecule `N#Cc1c(-c2nc3ccccc3s2)c(=O)oc2cc(O)ccc12` showed a pKa (acidic group) of 6.38.
The same measure, in the same setting: for `O=c1c(O)c1-c1ccc(F)cc1` the value was 2.07.
In turn, `CC(C)Nc1ncnc2c1cnn2C` showed a pKa (basic group) of 4.22.
`COc1ccc(/N=N/c2c(N)n[nH]c2N)cc1` returned a pKa (basic group) of 3.39.
